Consider six compounds from patent US5656600A, “α-ketoamide derivatives as inhibitors of thrombosis” (Corvas International, Inc., priority 1993, dated 1997).

One test concerns the target α-thrombin (Homo sapiens, UniProt P00734). In words: Amidolytic thrombin assay (inhibition constant Ki). Conditions: chromogenic substrate Pefachrome t-PA, HBSA pH 7.5; slow-binding (kon/koff) or Dixon analysis. It counts as biochemical. As for the experimental part:
The ability of the compounds of the present invention to act as inhibitors of thrombin catalytic activity in comparison to Hirulog-1 (compound 25) was assessed by determining their inhibition constant, Ki.
Enzyme activity was determined using the chromogenic substrate Pefachrome t-PA (CH3 SO2 -D-hexahydrotyrosine-glycyl-L-arginine-p-nitroaniline, obtained from Pentapharm Ltd.). The substrate was reconstituted in deionized water prior to use.
Ki values were determined for test compounds using the following methodologies:
The assay was conducted by combining in appropriate wells of a Corning microtiter plate, 50 μL of HBSA, 50 μL of the test compound at a specified concentration diluted in HBSA (or HBSA alone for Vo(uninhibited velocity) measurement), and 50 μL of the chromogenic substrate diluted in HBSA. At time zero, 50 μL of α-thrombin diluted in HBSA, was added to the wells yielding a final concentration of 0.25 nM in a total volume of 200 μL. Velocities of Pefachrome-tPA substrate hydrolysis which occurred over a 40 minute time period was measured by the change in absorbance at 405 nm using a Thermo Max® Kinetic Microplate Reader. […] The linear relationship between kobs and inhibitor concentration is indicative of a competitive, one step mechanism and was used to calculate kon and koff which yielded a value for Ki after taking into consideration the concentration and Km (38.5 μM) of the substrate in the assay.
The initial velocity of Pefachrome t-PA hydrolysis was measured by the change in absorbance at 405 nm using a Thermo Max® Kinetic Microplate Reader over a 2 minute period in which less than 5% of the added substrate was utilized. The relationship between the ratio of the inhibited steady-state velocity (Vs) and the uninhibited velocity (Vo) to the concentration of inhibitor [It ], was analyzed using Equation 1 developed by Morrison , J. F., Biochim. Biophys. Acta, 185:269 (1969) for inhibitors which deplete a significant amount of the total enzyme (Et) over the course of the assay (designated tight binding inhibitors):
Vs/Vo={([Et ]-[It ]-Ki*)+[([It ]+Ki*-[Et ])^2
Ki* was determined by fitting Vs/Vo verses [I] using Equation 1 by non-linear regression analysis.
The best fit of the data for both compounds was to the equation describing competitive inhibition.

Another test deals with thrombin (Homo sapiens, UniProt P00734). The settings on record: cited from earlier work.
Another test deals with arginyl aminopeptidase. The settings on record: Ocain et al.; cited from earlier work.
The target in another test is cytosol aminopeptidase. The settings on record: Ocain et al.; cited from earlier work.
Test [1] has as its target microsomal aminopeptidase. The settings on record: Ocain et al.; cited from earlier work.

Values after ≈ are worked out from the molar mass of the structure shown. Residues, ends and D or L forms follow the SMILES beside them. *: point of attachment. Pentanoyl(2-Pr) = CCCC(CCC)C(=O)*

`CCCC(CCC)C(=O)N[C@@H](CC(=O)O)C(=O)N1CCC[C@H]1C(=O)N[C@@H](CCCNC(=N)N)C(=O)C(=O)NCC(=O)NCC(=O)NCC(=O)NCC(=O)NCC(=O)N[C@@H](CCCNC(=N)N)C(=O)NCC(=O)N[C@@H](CC(=O)O)C(=O)N[C@@H](Cc1ccccc1)C(=O)N[C@@H](CCC(=O)O)C(=O)N[C@@H](CCC(=O)O)C(=O)N[C@H](C(=O)N1CCC[C@H]1C(=O)N[C@@H](CCC(=O)O)C(=O)N[C@@H](CCC(=O)O)C(=O)N[C@@H](Cc1ccc(O)cc1)C(=O)N[C@@H](CC(C)C)C(=O)O)[C@@H](C)CC` [Compound 11] yielded a Ki at α-thrombin of 0.0078 nM.
In the case of “N-acetyl--D--Phe--Pro Arg--[.psi.C(=O)--CH2 ]--CH2 --CH2 --CH2 -(C=O)--Gln--Ser--His--Asn--Asp--Gly--Asp--Phe--Glu--Glu--Ile--Pro--Glu--Glu--Tyr--Leu--Gln”, the Ki on thrombin (literature values, read-out: Ki (thrombin), reported) was 0.14 nM.
On to `NC(=O)C(=O)C(N)Cc1ccccc1` (stereo not drawn) [3-Amino-2-oxo-4-phenylbutanoic acid amide], for which the figures for the Ki (on arginyl aminopeptidase; at cytosol aminopeptidase; in test [1]) were 1500 nM, 1000 nM and 2500 nM, respectively.
On α-thrombin, `CCCC(CCC)C(=O)N[C@@H](CC(=O)O)C(=O)N1CCC[C@H]1C(=O)N[C@@H](CCCNC(=N)N)C(=O)C(=O)NCC(=O)NCC(=O)NCC(=O)NCC(=O)NCC(=O)N[C@@H](CC(N)=O)C(=O)NCC(=O)N[C@@H](CC(=O)O)C(=O)N[C@@H](Cc1ccccc1)C(=O)N[C@@H](CCC(=O)O)C(=O)N[C@@H](CCC(=O)O)C(=O)N[C@H](C(=O)N1CCC[C@H]1C(=O)N[C@@H](CCC(=O)O)C(=O)N[C@@H](CCC(=O)O)C(=O)N[C@@H](Cc1ccc(O)cc1)C(=O)N[C@@H](CC(C)C)C(=O)O)[C@@H](C)CC` [Compound 10] returned a Ki of 0.04 nM.
With `N=C(N)NCCC[C@@H]1NC(=O)[C@@H]2CCCN2C(=O)[C@@H](NC=O)CNC(=O)/C=C/[C@H](Cc2ccc(O)cc2)NC(=O)[C@@H](Cc2ccccc2)NC(=O)C1=O` [Cyclotheonamide A], on thrombin (Fusetani et al., Hagihara et al.), the “IC50 (thrombin), reported” value is 0.076 µg/mL (≈ 0.104 µM). In addition, the IC50 on thrombin (Fusetani et al., Hagihara et al., read-out: IC50 (thrombin), reported) was 99 nM.
For the compound `CCCC(CCC)C(=O)N[C@@H](CC(=O)O)C(=O)N1CCC[C@H]1C(=O)N[C@@H](CCCNC(=N)N)C(=O)N1CCC[C@H]1C(=O)NCC(=O)NCC(=O)NCC(=O)NCC(=O)N[C@@H](CC(N)=O)C(=O)NCC(=O)N[C@@H](CC(=O)O)C(=O)N[C@@H](Cc1ccccc1)C(=O)N[C@@H](CCC(=O)O)C(=O)N[C@@H](CCC(=O)O)C(=O)N[C@H](C(=O)N1CCC[C@H]1C(=O)N[C@@H](CCC(=O)O)C(=O)N[C@@H](Cc1ccc(O)cc1)C(=O)N[C@@H](CC(C)C)C(=O)O)[C@@H](C)CC` [Compound 9] ({Pentanoyl(2-Pr)}-DPRPGGGGNGDFEEIPEYL-OH), the Ki at α-thrombin worked out at 46.1 nM.

The Ki is a measure of affinity in units of concentration, obtained from inhibition or displacement. The IC50 is the midpoint of a concentration-inhibition curve.
